As a reminder, the IC50 is the midpoint of a concentration-inhibition curve. Higher therefore signals weaker potency.

The values that follow come from patent US10568879B2 (GALAPAGOS NV, priority 2015, dated 2020).

The experiment deals with T1, GPR84 (Homo sapiens, UniProt Q9NQS5).
T1 construct: expressed in transfected cells
Kind of experiment: GPR84 [35S]GTPγS binding assay. Type of experiment: biochemical. To be noted: 3,3′-diindolylmethane at EC80; membranes from stable cell line over expressing GPR84. As to the method:
The following assay can be used for determination of GPR84 activation. The [^35S]GTPγS binding assay measures the level of G protein activation following agonist occupation of a GPCR, by determining the binding of the non-hydrolysable analog [^35S]GTPγS to Gα subunits.
The assay is performed in a 96-well plate where the following reagents are added. First 50 μL compound is added into the assay plate, followed by addition of 20 μL 3,3′-diindolylmethane at EC80 concentration (concentration which gives 80% of the activity of GPR84). Then, 30 μL of a mixture consisting of membranes-GTPγS-SpA beads is added [mixture consists of 20 μg/well membranes derived from stable cell line over expressing GPR84 (membranes are pre-incubated with 0.1 μM GDP for 15 min at 4° C.), 0.1 nM [^35S]GTPγS (Perkin Elmer, NEG030) and 0.5 mg/well PVT-WGA SpA beads (Perkin Elmer, RPNQ0001)]. All components are diluted in assay buffer containing 20 mM Tris pH 7.5; 5 mM MgCl2; 250 mM NaCl; 0.05% BSA; 75 μg/mL saponin. After an incubation of 90 min at room temperature, 20 μL CsCl2 0.8 M (MP Biomedicals, 02150589) is added, followed by centrifugation at 2000 rpm during 20 min. Plates are read on a topcount reader (perkin elmer) immediately after centrifugation (readout time, 1 min/well).
(In general: GTPγS resists hydrolysis and so accumulates on activated G proteins.)

Each structure is given as a SMILES string.

T1 sequence (Q9NQS5 whole entry): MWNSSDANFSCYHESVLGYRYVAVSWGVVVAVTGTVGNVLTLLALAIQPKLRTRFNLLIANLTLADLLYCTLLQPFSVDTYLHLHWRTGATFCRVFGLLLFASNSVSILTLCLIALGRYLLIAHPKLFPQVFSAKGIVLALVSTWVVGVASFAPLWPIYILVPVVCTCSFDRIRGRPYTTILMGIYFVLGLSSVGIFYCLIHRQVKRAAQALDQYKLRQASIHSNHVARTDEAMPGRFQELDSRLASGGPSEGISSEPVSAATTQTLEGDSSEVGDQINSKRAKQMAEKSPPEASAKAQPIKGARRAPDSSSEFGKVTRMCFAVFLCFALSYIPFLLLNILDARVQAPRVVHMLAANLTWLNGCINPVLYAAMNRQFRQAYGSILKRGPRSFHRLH

Compound `Cc1ccnc(-c2ccc3c(c2)CCn2c(OC[C@@H]4COCCO4)cc(=O)c(C)c2-3)c1` [Compound 103, 4-[[(2S)-1,4-dioxan-2-yl]methoxy]-1-methyl-9-(4-methyl-2-pyridyl)-6,7-dihydrobenzo[a]quinolizin-2-one] came in with an IC50 of 0.01 to 100 nM.

The compound `Cc1c2n(c(OC[C@@H]3COCCO3)cc1=O)CCc1cc(OC3CN(C(=O)OC(C)(C)C)C3)ccc1-2` [Compound 104, tert-butyl 3-[[4-[[(2S)-1,4-dioxan-2-yl]methoxy]-1-methyl-2-oxo-6,7-dihydrobenzo[a]quinolizin-9-yl]oxy]azetidine-1-carboxylate] had an IC50 of 0.01 to 100 nM.

`[2H]C(Oc1ccc2c(c1)CCn1c(OC[C@@H]3COCCO3)c([2H])c(=O)c(C)c1-2)=C(F)F` [Compound 105, 3-deuterio-9-(1-deuterio-2,2-difluoro-vinyloxy)-4-[[(2S)-1,4-dioxan-2-yl]methoxy]-1-methyl-6,7-dihydrobenzo[a]quinolizin-2-one] displayed an IC50 of 0.01 to 100 nM.

`[2H]C([2H])(Oc1ccc2c(c1)CCn1c(OC[C@@H]3COCCO3)cc(=O)c(C)c1-2)C(F)(F)F` [Compound 106, 9-(1,1-dideuterio-2,2,2-trifluoro-ethoxy)-4-[[(2S)-1,4-dioxan-2-yl]methoxy]-1-methyl-6,7-dihydrobenzo[a]quinolizin-2-one]: the IC50 fell in the range of 0.01 to 100 nM.

In the case of `Cc1c2n(c(OCC3CCO3)cc1=O)CCc1cc(OCc3ccccc3)ccc1-2` (stereo not shown) [Compound 107, 9-benzyloxy-1-methyl-4-(oxetan-2-ylmethoxy)-6,7-dihydrobenzo[a]quinolizin-2-one], the IC50 fell in the range of 100 to 500 nM.

For `Cc1c2n(c(OC[C@@H]3CCCO3)cc1=O)CCc1cc(OCc3ccccc3)ccc1-2` [Compound 108, 9-benzyloxy-1-methyl-4-[[(2S)-tetrahydrofuran-2-yl]methoxy]-6,7-dihydrobenzo[a]quinolizin-2-one], the IC50 was 0.01 to 100 nM.

In turn, `Cc1c2n(c(OCC3CCCCO3)cc1=O)CCc1cc(OCc3ccccc3)ccc1-2` (stereo not shown) [Compound 109, 9-benzyloxy-1-methyl-4-(tetrahydropyran-2-ylmethoxy)-6,7-dihydrobenzo[a]quinolizin-2-one] showed an IC50 of 0.01 to 100 nM.

With `COC1CN(c2ccc3c(c2)CCn2c(OC[C@@H]4COCCO4)cc(=O)c(C)c2-3)C1` [Compound 110, 4-[[(2S)-1,4-dioxan-2-yl]methoxy]-9-(3-methoxyazetidin-1-yl)-1-methyl-6,7-dihydrobenzo[a]quinolizin-2-one], the IC50 was in the range of 0.01 to 100 nM.

Compound `COC1CCN(c2ccc3c(c2)CCn2c(OC[C@@H]4COCCO4)cc(=O)c(C)c2-3)CC1` [Compound 111, 4-[[(2S)-1,4-dioxan-2-yl]methoxy]-9-(4-methoxy-1-piperidyl)-1-methyl-6,7-dihydrobenzo[a]quinolizin-2-one] had an IC50 of 0.01 to 100 nM.

As for `Cc1c2n(c(OC[C@@H]3COCCO3)cc1=O)CCc1cc(N3CCC(C(=O)N4CCCCC4)CC3)ccc1-2` [Compound 112, 4-[[(2S)-1,4-dioxan-2-yl]methoxy]-1-methyl-9-[4-(piperidine-1-carbonyl)-1-piperidyl]-6,7-dihydrobenzo[a]quinolizin-2-one], the IC50 is 0.01 to 100 nM.

Compound `Cc1c2n(c(OC[C@@H]3COCCO3)cc1=O)CCc1cc(N3CCC(c4ccccc4)CC3)ccc1-2` [Compound 113, 4-[[(2S)-1,4-dioxan-2-yl]methoxy]-1-methyl-9-(4-phenyl-1-piperidyl)-6,7-dihydrobenzo[a]quinolizin-2-one] came in with an IC50 of 0.01 to 100 nM.

Compound `Cc1c2n(c(OC[C@@H]3COCCO3)cc1=O)CCc1cc(N3CCCCC3)ccc1-2` [Compound 115, 4-[[(2S)-1,4-dioxan-2-yl]methoxy]-1-methyl-9-(1-piperidyl)-6,7-dihydrobenzo[a]quinolizin-2-one] showed an IC50 of 0.01 to 100 nM.

The compound `Cc1c2n(c(OC[C@@H]3COCCO3)cc1=O)CCc1cc(N3CCCC(C)C3)ccc1-2` (stereo partly drawn) [Compound 116, 4-[[(2S)-1,4-dioxan-2-yl]methoxy]-1-methyl-9-(3-methyl-1-piperidyl)-6,7-dihydrobenzo[a]quinolizin-2-one] returned an IC50 of 0.01 to 100 nM.

On to `Cc1c2n(c(OC[C@@H]3COCCO3)cc1=O)CCc1cc(N3CCC(c4ccc(F)cc4)CC3)ccc1-2` [Compound 117, 4-[[(2S)-1,4-dioxan-2-yl]methoxy]-9-[4-(4-fluorophenyl)-1-piperidyl]-1-methyl-6,7-dihydrobenzo[a]quinolizin-2-one], for which the 50% inhibitory concentration (IC50) was 0.01 to 100 nM.

In the case of `Cc1c2n(c(OC[C@@H]3COCCO3)cc1=O)CCc1cc(OC3CN(C(=O)C4CC4)C3)ccc1-2` [Compound 118, 9-[1-(cyclopropanecarbonyl)azetidin-3-yl]oxy-4-[[(2S)-1,4-dioxan-2-yl]methoxy]-1-methyl-6,7-dihydrobenzo[a]quinolizin-2-one], the IC50 fell in the range of 100 to 500 nM.

For `Cc1c2n(c(OC[C@@H]3COCCO3)cc1=O)CCc1cc(OC3CN(C(=O)C(F)(F)F)C3)ccc1-2` [Compound 119, 4-[[(2)S-1,4-dioxan-2-yl]methoxy]-1-methyl-9-[1-(2,2,2-trifluoroacetyl)azetidin-3-yl]oxy-6,7-dihydrobenzo[a]quinolizin-2-one], the IC50 was 100 to 500 nM.

`CCOC(=O)N1CC(Oc2ccc3c(c2)CCn2c(OC[C@@H]4COCCO4)cc(=O)c(C)c2-3)C1` [Compound 120, ethyl 3-[[4-[[(2S)-1,4-dioxan-2-yl]methoxy]-1-methyl-2-oxo-6,7-dihydrobenzo[a]quinolizin-9-yl]oxy]azetidine-1-carboxylate]: the IC50 is 0.01 to 100 nM.

`Cc1c2n(c(OC[C@@H]3COCCO3)cc1=O)CCc1cc(N3CCC(Oc4cccnc4)CC3)ccc1-2` [Compound 121, 4-[[(2S)-1,4-dioxan-2-yl]methoxy]-1-methyl-9-[4-(3-pyridyloxy)-1-piperidyl]-6,7-dihydrobenzo[a]quinolizin-2-one] displayed an IC50 of 0.01 to 100 nM.

On to `Cc1c2n(c(OC[C@@H]3COCCO3)cc1=O)CCc1cc(N3CCC(C#N)CC3)ccc1-2` [Compound 122, 1-[4-[[(2)S-1,4-dioxan-2-yl]methoxy]-1-methyl-2-oxo-6,7-dihydrobenzo[a]quinolizin-9-yl]piperidine-4-carbonitrile], for which the half-inhibitory concentration (IC50) is 0.01 to 100 nM.

Take `Cc1c2n(c(OC[C@@H]3COCCO3)cc1=O)CCc1cc(N3CCCC(F)(F)C3)ccc1-2` [Compound 123, 9-(3,3-difluoro-1-piperidyl)-4-[[(2S)-1,4-dioxan-2-yl]methoxy]-1-methyl-6,7-dihydrobenzo[a]quinolizin-2-one]: the concentration for half-maximal inhibition (IC50) was 0.01 to 100 nM.

`Cc1c2n(c(OC[C@@H]3COCCO3)cc1=O)CCc1cc(C(C)C)ccc1-2` [Compound 124, 4-[[(2S)-1,4-dioxan-2-yl]methoxy]-9-isopropyl-1-methyl-6,7-dihydrobenzo[a]quinolizin-2-one] gave an IC50 of 0.01 to 100 nM.

As for `[2H]c1c(OC[C@@H]2COCCO2)n2c(c(C)c1=O)-c1ccc(OCC(F)(F)F)cc1CC2` [Compound 125, 3-deuterio-4-[[(2S)-1,4-dioxan-2-yl]methoxy]-1-methyl-9-(2,2,2-trifluoroethoxy)-6,7-dihydrobenzo[a]quinolizin-2-one], the half-maximal inhibitory concentration (IC50) fell in the range of 0.01 to 100 nM.

`[2H]c1c(OC[C@@H]2COCCO2)n2c(c(C)c1=O)-c1ccc(OC([2H])([2H])C([2H])([2H])F)cc1CC2` [Compound 126, 3-deuterio-4-[[(2S)-1,4-dioxan-2-yl]methoxy]-1-methyl-9-(1,1,2,2-tetradeuterio-2-fluoro-ethoxy)-6,7-dihydrobenzo[a]quinolizin-2-one] had an IC50 of 0.01 to 100 nM.

Compound `Cc1c2n(c(OC[C@@H]3COCCO3)cc1=O)CCc1cc(OC3CCN(C(=O)OC(C)(C)C)C3)ccc1-2` (stereo partly drawn) [Compound 127, tert-butyl 3-[[4-[[(2S)-1,4-dioxan-2-yl]methoxy]-1-methyl-2-oxo-6,7-dihydrobenzo[a]quinolizin-9-yl]oxy]pyrrolidine-1-carboxylate] displayed an IC50 of 0.01 to 100 nM.

For the compound `Cc1c2n(c(OC[C@@H]3COCCO3)cc1=O)CCc1cc(OC3CCN(C(=O)OC(C)(C)C)CC3)ccc1-2` [Compound 128, tert-butyl 4-[[4-[[(2S)-1,4-dioxan-2-yl]methoxy]-1-methyl-2-oxo-6,7-dihydrobenzo[a]quinolizin-9-yl]oxy]piperidine-1-carboxylate], the IC50 lay in the range of 0.01 to 100 nM.

Turning to `Cc1c2n(c(OC[C@@H]3COCCO3)cc1=O)CCc1cc(N(C)CCC(F)(F)F)ccc1-2` [Compound 129, 4-[[(2S)-1,4-dioxan-2-yl]methoxy]-1-methyl-9-[methyl(3,3,3-trifluoropropyl)amino]-6,7-dihydrobenzo[a]quinolizin-2-one], the IC50 is 0.01 to 100 nM.

`Cc1c2n(c(OC[C@@H]3COCCO3)cc1=O)CCc1cc(N3CCCC3)ccc1-2` [Compound 130, 4-[[(2S)-1,4-dioxan-2-yl]methoxy]-1-methyl-9-pyrrolidin-1-yl-6,7-dihydrobenzo[a]quinolizin-2-one] yielded an IC50 of 0.01 to 100 nM.

Consider `Cc1c2n(c(OC[C@@H]3COCCO3)cc1=O)CCc1cc(N3CCC(F)(F)C3)ccc1-2` [Compound 131, 9-(3,3-difluoropyrrolidin-1-yl)-4-[[(2S)-1,4-dioxan-2-yl]methoxy]-1-methyl-6,7-dihydrobenzo[a]quinolizin-2-one], for which the IC50 lay within 0.01 to 100 nM.
